Assay results as given in publication PMC11435058, “Synthesis of New Thiazole-Privileged Chalcones as Tubulin Polymerization Inhibitors with Potential Anticancer Activities” (Pharmaceuticals, 2024).

Assays:
MDA-MB-468 = test: NCI-60 anticancer screen (SRB; single dose and five doses); assay type: cell-based, human
Summary of the method: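 NCI panel of about 60 human tumor cell lines treated with compound at a single concentration (10μM) for 48 h. Growth measured by SRB protein staining and expressed as percent growth of treated versus untreated control cells.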

OVCAR-3 = test: cells; settings: Homo sapiens
HL-60(TB) = test: NCI-60 anticancer screen (SRB; single dose and five doses); settings: Homo sapiens
MOLT-4 = test: as above; settings: Homo sapiens
A549/ATCC = test: as above; settings: Homo sapiens
NCI-H226 = test: as above; settings: Homo sapiens
NCI-H322M = test: as above; settings: Homo sapiens
NCI-H460 = test: as above; settings: Homo sapiens
NCI-H522 = test: as above; settings: Homo sapiens
COLO 205 = test: as above; settings: Homo sapiens
HCT-15 = test: as above; settings: Homo sapiens
SW-620 = test: as above; settings: Homo sapiens
SF-268 = test: as above; settings: Homo sapiens
SNB-75 = test: as above; settings: Homo sapiens, SNB-75, 48 h, read-out: Growth Percentage
MALME-3M = test: as above; settings: Homo sapiens
M14 = test: as above; settings: Homo sapiens
SK-MEL-2 = test: as above; settings: Homo sapiens
UACC-257 = test: as above; settings: Homo sapiens
786-0 = test: as above; settings: Homo sapiens
A498 = test: as above; settings: Homo sapiens
ACHN = test: as above; settings: Homo sapiens
RXF 393 = test: as above; settings: Homo sapiens
SN12C = test: as above; settings: Homo sapiens
PC-3 = test: as above; settings: Homo sapiens
BT-549 = test: as above; settings: Homo sapiens
[1] = 48 h, read-out: Growth Percentage

Cc1[nH]c(=S)sc1C(=O)/C=C/c1ccc([N+](=O)[O-])cc1 [2i, (E)-1-(4-Methyl-2-Thioxo-2,3-Dihydrothiazol-5-yl)-3-(4-Nitrophenyl)Prop-2-En-1-One]
activity at 10 µM (MDA-MB-468; Homo sapiens, 48 h, MDA-MB-468, dose of 10 μM, read-out: Growth Percentage): -18.9% | GI50 (MDA-MB-468; Homo sapiens, MDA-MB-468, Breast Cancer, five dose): 2.2 µM | CC50 (MDA-MB-468; Homo sapiens, MDA-MB-468, Breast Cancer, five dose, read-out: LC50 (the source's name)): 31.4 µM | TGI (MDA-MB-468; MDA-MB-468, Breast Cancer, five dose): 8 µM | GI50 (OVCAR-3; OVCAR-3): 2.22 µM | activity at 10 µM (OVCAR-3; OVCAR-3, 48 h, read-out: Growth Percentage): -6% | CC50 (OVCAR-3; OVCAR-3, read-out: LC50): 16.6 µM | IC (TGI) (OVCAR-3; OVCAR-3, read-out: TGI): 5.28 µM | GI50 (HL-60(TB); HL-60): 3.05 µM | activity at 10 µM (HL-60(TB); HL-60, 48 h, read-out: Growth Percentage): -5.39% | CC50 (HL-60(TB); HL-60, read-out: LC50): > 100 µM | IC (TGI) (HL-60(TB); HL-60, read-out: TGI): 16.9 µM | GI50 (MOLT-4; MOLT-4): 3.79 µM | activity at 10 µM (MOLT-4; MOLT-4, 48 h, read-out: Growth Percentage): 14.2% | CC50 (MOLT-4; MOLT-4, read-out: LC50): > 100 µM | IC (TGI) (MOLT-4; MOLT-4, read-out: TGI): > 100 µM | GI50 (A549/ATCC; A549): 17 µM | activity at 10 µM (A549/ATCC; A549, 48 h, read-out: Growth Percentage): 75.7% | CC50 (A549/ATCC; A549, read-out: LC50): 69 µM | IC (TGI) (A549/ATCC; A549, read-out: TGI): 34.2 µM | GI50 (NCI-H226; NCI-H226): 15.6 µM | activity at 10 µM (NCI-H226; NCI-H226, 48 h, read-out: Growth Percentage): 91.4% | CC50 (NCI-H226; NCI-H226, read-out: LC50): > 100 µM | IC (TGI) (NCI-H226; NCI-H226, read-out: TGI): 42.1 µM | GI50 (NCI-H322M): 11 µM | activity at 10 µM (NCI-H322M; [1]): 50.7% | CC50 (NCI-H322M; read-out: LC50): 54.6 µM | IC (TGI) (NCI-H322M; read-out: TGI): 24.5 µM | GI50 (NCI-H460; NCI-H460): 15.9 µM | activity at 10 µM (NCI-H460; NCI-H460, 48 h, read-out: Growth Percentage): 11.3% | CC50 (NCI-H460; NCI-H460, read-out: LC50): 72.5 µM | IC (TGI) (NCI-H460; NCI-H460, read-out: TGI): 34 µM | GI50 (NCI-H522; NCI-H522): 9.37 µM | activity at 10 µM (NCI-H522; NCI-H522, 48 h, read-out: Growth Percentage): 33% | CC50 (NCI-H522; NCI-H522, read-out: LC50): 51.5 µM | IC (TGI) (NCI-H522; NCI-H522, read-out: TGI): 22.5 µM | GI50 (COLO 205; COLO 205): 15.9 µM | activity at 10 µM (COLO 205; COLO 205, 48 h, read-out: Growth Percentage): 91.5% | CC50 (COLO 205; COLO 205, read-out: LC50): > 100 µM | IC (TGI) (COLO 205; COLO 205, read-out: TGI): 41.1 µM | GI50 (HCT-15; HCT-15): 2.46 µM | activity at 10 µM (HCT-15; HCT-15, 48 h, read-out: Growth Percentage): -62.1% | CC50 (HCT-15; HCT-15, read-out: LC50): 33.7 µM | IC (TGI) (HCT-15; HCT-15, read-out: TGI): 7.86 µM | GI50 (SW-620; SW-620): 3.59 µM | activity at 10 µM (SW-620; SW-620, 48 h, read-out: Growth Percentage): -44.8% | CC50 (SW-620; SW-620, read-out: LC50): 44.2 µM | IC (TGI) (SW-620; SW-620, read-out: TGI): 13.9 µM | GI50 (SF-268; SF-268): 15.6 µM | activity at 10 µM (SF-268; SF-268, 48 h, read-out: Growth Percentage): 47.4% | CC50 (SF-268; SF-268, read-out: LC50): 67.3 µM | IC (TGI) (SF-268; SF-268, read-out: TGI): 32.4 µM | activity at 10 µM (SNB-75): 36% | GI50 (MALME-3M): 13.7 µM | activity at 10 µM (MALME-3M; [1]): 75.2% | CC50 (MALME-3M; read-out: LC50): 70.8 µM | IC (TGI) (MALME-3M; read-out: TGI): 31.1 µM | GI50 (M14; M14): 12.2 µM | activity at 10 µM (M14; M14, 48 h, read-out: Growth Percentage): 69.5% | IC (TGI) (M14; M14, read-out: TGI): 28.4 µM | GI50 (SK-MEL-2; SK-MEL-2): 13.6 µM | activity at 10 µM (SK-MEL-2; SK-MEL-2, 48 h, read-out: Growth Percentage): 49.5% | CC50 (SK-MEL-2; SK-MEL-2, read-out: LC50): 62 µM | IC (TGI) (SK-MEL-2; SK-MEL-2, read-out: TGI): 29 µM | GI50 (UACC-257; UACC-257): 15.1 µM | activity at 10 µM (UACC-257; UACC-257, 48 h, read-out: Growth Percentage): 63.3% | CC50 (UACC-257; UACC-257, read-out: LC50): 61.4 µM | IC (TGI) (UACC-257; UACC-257, read-out: TGI): 30.4 µM | GI50 (786-0; 786-0): 3.99 µM | activity at 10 µM (786-0; 786-0, 48 h, read-out: Growth Percentage): 25.6% | CC50 (786-0; 786-0, read-out: LC50): 54 µM | IC (TGI) (786-0; 786-0, read-out: TGI): 17.6 µM | GI50 (A498; A498): 15.5 µM | activity at 10 µM (A498; A498, 48 h, read-out: Growth Percentage, A498, dose of 10 μM): 105% | CC50 (A498; A498, read-out: LC50): 55.3 µM | IC (TGI) (A498; A498, read-out: TGI): 29.3 µM | GI50 (ACHN): 11.3 µM | activity at 10 µM (ACHN; [1]): 3.88% | CC50 (ACHN; read-out: LC50): 48.4 µM | IC (TGI) (ACHN; read-out: TGI): 23.3 µM | GI50 (RXF 393; RXF 393): 4.88 µM | activity at 10 µM (RXF 393; RXF 393, 48 h, read-out: Growth Percentage): -4.35% | CC50 (RXF 393; RXF 393, read-out: LC50): 44.8 µM | IC (TGI) (RXF 393; RXF 393, read-out: TGI): 18.6 µM | GI50 (SN12C): 6.06 µM | activity at 10 µM (SN12C; [1]): 18.6% | CC50 (SN12C; read-out: LC50): 44.7 µM | IC (TGI) (SN12C; read-out: TGI): 19.3 µM | GI50 (PC-3; PC-3): 10.3 µM | activity at 10 µM (PC-3; PC-3, 48 h, read-out: Growth Percentage): 51.3% | CC50 (PC-3; PC-3, read-out: LC50): > 100 µM | IC (TGI) (PC-3; PC-3, read-out: TGI): 37.3 µM | GI50 (BT-549; BT-549): 5.04 µM | activity at 10 µM (BT-549; BT-549, 48 h, read-out: Growth Percentage): 20.1% | IC (TGI) (BT-549; BT-549, read-out: TGI): 19.3 µM
